Experimental data reported in PubChem BioAssay AID330 (DTP/NCI, 2004).
Where “and” joins values, the source holds several entries; their conditions need not be identical. Identical values can stand only once. Inconclusive results and toxic doses are left out. How the source made its calls: active means survival T/C of 150% or more; inactive means T/C below 125% in these data. Peptide text beside a SMILES is read from it.

System: P388 leukemia ip, CD2F1 mice, survival T/C
Assay: NCI In Vivo Anticancer Drug Screen. Data for tumor model P388 Leukemia (intraperitoneal) in CD2F1 (CDF1) mice
Settings: endpoint: median survival time, higher = longer survival
Procedure, shortened: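 Mice carrying the transplanted tumor received test compound or vehicle. Survival was recorded in each group, and the value is the treated-group measurement divided by that of the vehicle-treated control group.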

[1] = dose: 60.0 mg/kg/injection, schedule: Q01DX005 (ip), vehicle: saline with Tween-80
[2] = dose: 120.0 mg/kg/injection, schedule: Q01DX005 (ip), vehicle: saline with Tween-80
[3] = dose: 50.0 mg/kg/injection, schedule: Q01DX005 (ip), vehicle: Klucel (hydroxypropylcellulose) (HPC)
[4] = dose: 100.0 mg/kg/injection, schedule: Q01DX005 (ip), vehicle: Klucel (hydroxypropylcellulose) (HPC)
[5] = dose: 200.0 mg/kg/injection, schedule: Q01DX005 (ip), vehicle: Klucel (hydroxypropylcellulose) (HPC)

Measured: T/C

COc1cccc2c1C(=O)c1c(O)c3c(c(O)c1C2=O)C(OC)C(O)(C(C)=O)CC3OC1CC(N)C(O)C(C)O1 (stereo not given)
inactive: dose: 3.13 mg/kg/injection, schedule: Q04DX003 (ip), vehicle: water 100 % of control | dose: 6.25 mg/kg/injection, schedule: Q04DX003 (ip), vehicle: water 100 % of control | dose: 12.5 mg/kg/injection, schedule: Q04DX003 (ip), vehicle: water 108 % of control | dose: 25.0 mg/kg/injection, schedule: Q04DX003 (ip), vehicle: water 115 % of control | dose: 50.0 mg/kg/injection, schedule: Q04DX003 (ip), vehicle: water 115 % of control

CC1CC(C)OC(C(C)(C)C)O1 (stereo not given)
inactive: dose: 60.0 mg/kg/injection, schedule: Q01DX005 (ip), vehicle: saline 107 % of control | dose: 120.0 mg/kg/injection, schedule: Q01DX005 (ip), vehicle: saline 109 % of control | dose: 240.0 mg/kg/injection, schedule: Q01DX005 (ip), vehicle: saline 107 % of control

CC(C)C12OC1CC13OC1C1OC1C1OC132 (stereo not given)
inactive: dose: 100.0 mg/kg/injection, schedule: Q04DX002 (ip), vehicle: saline with Tween-80 101 % of control | dose: 200.0 mg/kg/injection, schedule: Q04DX002 (ip), vehicle: saline with Tween-80 99 % of control | dose: 400.0 mg/kg/injection, schedule: Q04DX002 (ip), vehicle: saline with Tween-80 94 % of control

CCCCCCCC(=O)NCCCC(C)Nc1cc(OC)cc2cccnc12 (stereo not given)
inactive: [1] 106 % of control | [2] 99 % of control

CCC[CH2][Sn]([CH2]CCC)[S]CC(N)C(=O)O (stereo not given)
inactive: dose: 0.16 mg/kg/injection, schedule: Q01DX005 (ip), vehicle: Klucel (hydroxypropylcellulose) (HPC) 107 % of control | dose: 0.23 mg/kg/injection, schedule: Q01DX005 (ip), vehicle: Klucel (hydroxypropylcellulose) (HPC) 108 % of control | dose: 0.46 mg/kg/injection, schedule: Q01DX005 (ip), vehicle: Klucel (hydroxypropylcellulose) (HPC) 103 % of control and 104 % of control | dose: 0.93 mg/kg/injection, schedule: Q01DX005 (ip), vehicle: Klucel (hydroxypropylcellulose) (HPC) 117 % of control | dose: 3.75 mg/kg/injection, schedule: Q01DX005 (ip), vehicle: Klucel (hydroxypropylcellulose) (HPC) 108 % of control

CC1OC(O[C@H]2C[C@](O)(C(C)O)Cc3c(O)c4c(c(O)c32)C(=O)c2c(O)cccc2C4=O)CC(NC=O)C1O (stereo not given in full)
inactive: dose: 0.16 mg/kg/injection, schedule: Q04DX003 (ip), vehicle: water 118 % of control | dose: 0.32 mg/kg/injection, schedule: Q04DX003 (ip), vehicle: water 113 % of control | dose: 0.33 mg/kg/injection, schedule: Q04DX003 (ip), vehicle: water 103 % of control | dose: 0.65 mg/kg/injection, schedule: Q04DX003 (ip), vehicle: water 111 % of control | dose: 1.29 mg/kg/injection, schedule: Q04DX003 (ip), vehicle: water 115 % of control | dose: 2.58 mg/kg/injection, schedule: Q04DX003 (ip), vehicle: water 123 % of control

CCOC(=O)c1[nH]c(=O)c2ccccc2c1O
inactive: dose: 12.5 mg/kg/injection, schedule: Q01DX009 (ip), vehicle: suspension in saline 91 % of control | dose: 25.0 mg/kg/injection, schedule: Q01DX009 (ip), vehicle: suspension in saline 92 % of control | dose: 50.0 mg/kg/injection, schedule: Q01DX009 (ip), vehicle: suspension in saline 99 % of control | dose: 100.0 mg/kg/injection, schedule: Q01DX009 (ip), vehicle: suspension in saline 98 % of control

COc1ccc2c(c1)NC(C(C)C)=NS2(=O)=O
inactive: dose: 60.0 mg/kg/injection, schedule: Q01DX005 (ip), vehicle: Klucel (hydroxypropylcellulose) (HPC) 99 % of control | dose: 120.0 mg/kg/injection, schedule: Q01DX005 (ip), vehicle: Klucel (hydroxypropylcellulose) (HPC) 95 % of control | dose: 240.0 mg/kg/injection, schedule: Q01DX005 (ip), vehicle: Klucel (hydroxypropylcellulose) (HPC) 97 % of control

COC(=O)C(C#N)=C(Cl)Cl
inactive: dose: 1.56 mg/kg/injection, schedule: Q01DX005 (ip), vehicle: Klucel (hydroxypropylcellulose) (HPC) 98 % of control | dose: 3.12 mg/kg/injection, schedule: Q01DX005 (ip), vehicle: Klucel (hydroxypropylcellulose) (HPC) 94 % of control | dose: 6.25 mg/kg/injection, schedule: Q01DX005 (ip), vehicle: Klucel (hydroxypropylcellulose) (HPC) 93 % of control

NC(Cc1ccccc1)C(=O)NC(CC(=O)O)C(=O)O (stereo not drawn) (H-Phe-Asp-OH; configuration not given here)
inactive: [3] 99 % of control | [4] 99 % of control | [5] 109 % of control

COc1ccc2c(c1)C(=O)CC2
inactive: [3] 106 % of control | [4] 101 % of control | [5] 101 % of control

CCCCCCC1=NC(C)(C)CO1
inactive: dose: 50.0 mg/kg/injection, schedule: Q01DX009 (ip), vehicle: saline with Tween-80 100 % of control | dose: 50.0 mg/kg/injection, schedule: Q04DX003 (ip), vehicle: saline with Tween-80 100 % of control | dose: 100.0 mg/kg/injection, schedule: Q01DX009 (ip), vehicle: saline with Tween-80 104 % of control | dose: 100.0 mg/kg/injection, schedule: Q04DX003 (ip), vehicle: saline with Tween-80 100 % of control | dose: 200.0 mg/kg/injection, schedule: Q01DX009 (ip), vehicle: saline with Tween-80 100 % of control | dose: 200.0 mg/kg/injection, schedule: Q04DX003 (ip), vehicle: saline with Tween-80 109 % of control

C=CC(CO)N1CC1 (stereo not given)
inactive: dose: 0.78 mg/kg/injection, schedule: Q01DX009 (ip), vehicle: saline 108 % of control | dose: 1.56 mg/kg/injection, schedule: Q01DX009 (ip), vehicle: saline 108 % of control | dose: 3.13 mg/kg/injection, schedule: Q01DX009 (ip), vehicle: saline 108 % of control

C=C(COC(C)=O)CC(CC(=C)CC(OC(C)=O)Sc1ccccc1)S(=O)(=O)c1ccccc1 (stereo not given)
inactive: dose: 60.0 mg/kg/injection, schedule: Q01DX005 (ip), vehicle: saline + Tween-80 + alcohol 106 % of control | dose: 120.0 mg/kg/injection, schedule: Q01DX005 (ip), vehicle: saline + Tween-80 + alcohol 104 % of control | dose: 240.0 mg/kg/injection, schedule: Q01DX005 (ip), vehicle: saline + Tween-80 + alcohol 104 % of control

CC(=O)SSC12CC3CC(CC(C3)C1)C2
inactive: dose: 30.0 mg/kg/injection, schedule: Q01DX005 (ip), vehicle: saline with Tween-80 100 % of control | [1] 100 % of control and 101 % of control | [2] 100 % of control and 104 % of control

O=C(O)c1cc(-c2ccc(Cl)c(Cl)c2)nc2cc3ccccc3cc12
inactive: dose: 50.0 mg/kg/injection, schedule: Q01DX009 (ip), vehicle: Klucel (hydroxypropylcellulose) (HPC) 110 % of control | dose: 100.0 mg/kg/injection, schedule: Q01DX009 (ip), vehicle: Klucel (hydroxypropylcellulose) (HPC) 106 % of control | dose: 200.0 mg/kg/injection, schedule: Q01DX009 (ip), vehicle: Klucel (hydroxypropylcellulose) (HPC) 95 % of control

COc1cc(C(=O)N2C3C4CCC(C)(OC4(C)C)C32)cc(OC)c1OC (stereo not given)
inactive: [3] 95 % of control | [4] 97 % of control | [5] 94 % of control

COc1nc(C(Br)Br)c([N+](=O)[O-])c(N2CCOCC2)n1
inactive: dose: 25.0 mg/kg/injection, schedule: Q01DX005 (ip), vehicle: Klucel (hydroxypropylcellulose) (HPC) 109 % of control | [3] 101 % of control | [4] 87 % of control

CN(C)C1C(=O)C(C(=O)NCN2CCOB(c3ccccc3)OCC2)=C(O)C2(O)C(O)=C3C(=O)C4C(O)=CC=CC4C(C)(O)C3CC12 (stereo not given)
inactive: dose: 12.5 mg/kg/injection, schedule: Q04DX002 (ip), vehicle: saline 101 % of control | dose: 25.0 mg/kg/injection, schedule: Q04DX002 (ip), vehicle: saline 105 % of control | dose: 50.0 mg/kg/injection, schedule: Q04DX002 (ip), vehicle: saline 108 % of control

Cc1ccc(S(=O)(=O)NC(=O)NC(=S)c2cccc3ccccc23)cc1
inactive: dose: 100.0 mg/kg/injection, schedule: Q01DX001 (ip), vehicle: saline with Tween-80 101 % of control | dose: 200.0 mg/kg/injection, schedule: Q01DX001 (ip), vehicle: saline with Tween-80 99 % of control | dose: 400.0 mg/kg/injection, schedule: Q01DX001 (ip), vehicle: saline with Tween-80 102 % of control
